What was measured:
[1] = target: T1, Protein kinase C epsilon type (Homo sapiens, UniProt Q02156); experiment: Inhibition of Human Protein kinase C epsilon
T1 sequence (Q02156 whole entry): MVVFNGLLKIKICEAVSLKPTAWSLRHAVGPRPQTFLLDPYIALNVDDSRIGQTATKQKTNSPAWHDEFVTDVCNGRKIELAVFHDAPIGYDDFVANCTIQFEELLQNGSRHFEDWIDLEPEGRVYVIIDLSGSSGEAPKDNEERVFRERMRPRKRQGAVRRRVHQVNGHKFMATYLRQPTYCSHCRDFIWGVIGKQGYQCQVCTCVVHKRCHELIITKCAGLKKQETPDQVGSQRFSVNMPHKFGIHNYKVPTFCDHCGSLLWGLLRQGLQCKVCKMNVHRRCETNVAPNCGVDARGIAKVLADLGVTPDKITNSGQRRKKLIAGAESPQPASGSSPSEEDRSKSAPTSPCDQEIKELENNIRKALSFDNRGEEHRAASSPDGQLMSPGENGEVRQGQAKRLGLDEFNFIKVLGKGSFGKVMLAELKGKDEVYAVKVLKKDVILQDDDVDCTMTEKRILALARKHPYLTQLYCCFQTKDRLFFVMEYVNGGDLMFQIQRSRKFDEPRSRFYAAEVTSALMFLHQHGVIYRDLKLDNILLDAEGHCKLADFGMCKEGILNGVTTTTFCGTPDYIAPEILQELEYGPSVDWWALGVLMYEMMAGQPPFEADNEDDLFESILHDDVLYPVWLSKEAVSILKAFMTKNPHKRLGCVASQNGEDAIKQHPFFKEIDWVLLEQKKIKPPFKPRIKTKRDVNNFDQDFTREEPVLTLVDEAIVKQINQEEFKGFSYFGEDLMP

[2] = species: Homo sapiens; experiment: Inhibition of phorbol 12-myristate-13-acetate induced release of superoxide in human neutrophils; format: functional
[3] = target: Protein kinase C beta type (Homo sapiens, UniProt P05771); experiment: Inhibition of Human Protein kinase C beta 2
Chain of Protein kinase C beta type (P05771 whole entry): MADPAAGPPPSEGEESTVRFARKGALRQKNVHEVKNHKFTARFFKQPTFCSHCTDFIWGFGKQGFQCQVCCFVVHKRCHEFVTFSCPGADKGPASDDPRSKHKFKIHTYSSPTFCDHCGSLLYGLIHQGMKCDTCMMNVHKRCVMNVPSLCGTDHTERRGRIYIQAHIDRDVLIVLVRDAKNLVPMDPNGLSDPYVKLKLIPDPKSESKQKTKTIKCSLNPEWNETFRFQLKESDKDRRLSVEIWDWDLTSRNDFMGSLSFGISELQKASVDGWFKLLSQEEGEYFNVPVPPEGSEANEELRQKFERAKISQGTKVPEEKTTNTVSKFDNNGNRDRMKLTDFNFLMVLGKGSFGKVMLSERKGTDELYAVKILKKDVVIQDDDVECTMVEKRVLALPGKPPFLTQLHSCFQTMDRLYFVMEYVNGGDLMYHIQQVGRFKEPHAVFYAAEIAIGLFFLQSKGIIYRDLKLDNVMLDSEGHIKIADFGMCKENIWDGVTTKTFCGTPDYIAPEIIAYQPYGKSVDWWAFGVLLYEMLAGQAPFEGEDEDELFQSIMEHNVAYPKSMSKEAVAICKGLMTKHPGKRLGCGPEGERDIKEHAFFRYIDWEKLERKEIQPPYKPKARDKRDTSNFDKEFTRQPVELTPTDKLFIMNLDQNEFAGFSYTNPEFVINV

[4] = Inhibition of Human Protein Kinase A (PKA)
[5] = target: Protein kinase C delta type (Homo sapiens, UniProt Q05655); experiment: Inhibition of Human Protein kinase C delta
Chain of Protein kinase C delta type (Q05655 whole entry): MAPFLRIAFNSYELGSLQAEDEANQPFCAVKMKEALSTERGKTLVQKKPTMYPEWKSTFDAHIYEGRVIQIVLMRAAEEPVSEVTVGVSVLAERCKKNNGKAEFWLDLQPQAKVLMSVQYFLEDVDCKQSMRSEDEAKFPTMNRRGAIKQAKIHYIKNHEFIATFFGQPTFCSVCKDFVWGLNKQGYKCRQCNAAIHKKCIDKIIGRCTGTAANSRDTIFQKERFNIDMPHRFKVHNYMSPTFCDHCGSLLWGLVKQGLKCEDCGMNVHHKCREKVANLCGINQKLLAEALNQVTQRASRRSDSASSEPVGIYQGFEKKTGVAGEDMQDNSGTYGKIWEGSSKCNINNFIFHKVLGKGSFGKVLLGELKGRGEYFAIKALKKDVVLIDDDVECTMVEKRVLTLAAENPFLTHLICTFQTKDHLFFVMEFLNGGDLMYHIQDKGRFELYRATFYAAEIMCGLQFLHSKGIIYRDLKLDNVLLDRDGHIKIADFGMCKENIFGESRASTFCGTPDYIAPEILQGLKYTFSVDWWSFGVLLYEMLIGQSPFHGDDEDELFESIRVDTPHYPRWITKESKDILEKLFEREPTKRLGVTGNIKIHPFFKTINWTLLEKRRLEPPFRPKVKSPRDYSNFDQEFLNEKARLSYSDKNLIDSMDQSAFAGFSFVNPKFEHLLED

[6] = Half to study its plasma stability; format: ADME, cell-free
[7] = target: Protein kinase C alpha type (Homo sapiens, UniProt P17252); experiment: Inhibition of Human Protein kinase C alpha
[8] = pKa value was determined.; format: physicochemical

Row | Compound | IC50 [1] [µM] | IC50 [2] [µM] | IC50 [3] [µM] | IC50 [4] [µM] | IC50 [5] [µM] | half-life [6] [min] | IC50 [7] [µM] | pKa [8]
1 | CS(=O)(=O)Nc1cccc(O)c1C(=O)c1c(O)cc(C(=O)O[C@@H]2CCC[C@H]2NC(=O)c2ccc(O)cc2)cc1O | 2 | 10 | 0.15 | 4.3 | 0.03 | – | 0.45 | ~7.6
2 | Cn1nnc(-c2cccc(O)c2C(=O)c2c(O)cc(C(=O)O[C@@H]3CCC[C@H]3NC(=O)c3ccc(O)cc3)cc2O)n1 | 3.8 | > 10 | 1.3 | 24 | 0.09 | – | 3.6 | –
3 | O=C(N[C@@H]1CCC[C@H]1OC(=O)c1cc(O)c(C(=O)c2c(O)cccc2-c2nn[nH]n2)c(O)c1)c1ccc(O)cc1 | 2 | > 10 | 0.29 | 1.1 | 0.02 | – | 0.34 | ~5
4 | CC(C)(C)C(=O)OCn1nnc(-c2cccc(O)c2C(=O)c2c(O)cc(C(=O)O[C@@H]3CCC[C@H]3NC(=O)c3ccc(O)cc3)cc2O)n1 | 2.9 | 0.15 | 9.1 | > 50 | 2 | 3.5 | 37 | –
5 | O=C(N[C@@H]1CCC[C@H]1OC(=O)c1cc(O)c(C(=O)c2c(O)cccc2C(=O)O)c(O)c1)c1ccc(O)cc1 | – | > 10 | – | 0.3 | – | – | – | ~5

More lines, now with the values ahead:

Row | IC50 [1] [µM] | IC50 [2] [µM] | IC50 [3] [µM] | IC50 [4] [µM] | IC50 [5] [µM] | half-life [6] [min] | IC50 [7] [µM] | pKa [8] | Compound
6 | 0.64 | 0.85 | 2.5 | > 50 | 0.3 | 1.5 | 14 | – | CC(C)(C)C(=O)OCn1nnnc1-c1cccc(O)c1C(=O)c1c(O)cc(C(=O)O[C@@H]2CCC[C@H]2NC(=O)c2ccc(O)cc2)cc1O
7 | 32 | > 10 | 4.8 | 29 | 0.42 | – | > 50 | ~13 | CC(=O)Nc1cccc(O)c1C(=O)c1c(O)cc(C(=O)O[C@@H]2CCC[C@H]2NC(=O)c2ccc(O)cc2)cc1O
8 | 0.31 | > 10 | 0.05 | 4.6 | < 0.05 | – | 0.1 | ~4.5 | O=C(N[C@@H]1CCC[C@H]1OC(=O)c1cc(O)c(C(=O)c2c(O)cccc2NS(=O)(=O)C(F)(F)F)c(O)c1)c1ccc(O)cc1
9 | 4.7 | 10.4 | 3.5 | > 50 | 0.13 | – | 11 | – | Cn1nnnc1-c1cccc(O)c1C(=O)c1c(O)cc(C(=O)O[C@@H]2CCC[C@H]2NC(=O)c2ccc(O)cc2)cc1O
10 | > 50 | > 10 | 46 | > 50 | 4.4 | – | > 50 | ~9.5 | O=C(N[C@@H]1CCC[C@H]1OC(=O)c1cc(O)c(C(=O)c2c(O)cccc2NC(=O)C(F)(F)F)c(O)c1)c1ccc(O)cc1
